# Literature values as cited in US20080171790A1, “Fatty acids-systemic lipid solubilizers conjugates” (priority 2007, published 2008).
# Settings: after oral administration
smiles,measurement,value
"C[C@H](CCC(=O)O)[C@H]1CC[C@H]2[C@@H]3C[C@H](O)[C@@H]4C[C@H](O)CC[C@]4(C)[C@H]3CC[C@]12C [hyodeoxycholic acid, Hyodeoxycholic acid]",proportion of the administered substance excreted in the urine as a glucuronide,up to 84%
